Test results as given in patent US11642320B2, “Nanoparticulate prodrugs” (priority 2016, dated 2023).

Key:
[1] = tested on: pro-inflammatory cytokine release, raw264.7 cells; assay: Control cytokine release assay without LPS treatment; format: cell-based, mouse; settings: raw264.7 cells without any LPS treatment
Procedure: (§1) The mouse inflammatory cytokines TNFα, MCP-1, IL-10 and IL-6 were quantified using a Cytometric Beads Array (CBA) detection kit (BD Biosciences, USA). This study was performed in triplicate.
This confirms that the developed nanoparticles are suitable for anti-inflammatory treatment as expected.

TNFα = assay: Cytokine release from LPS-treated macrophages: TNFα; format: cell-based, mouse; settings: RAW 264.7, LPS 0.1 μg/mL, 24 hours; 100 μg/ml DXP or same equivalent concentration (82 μg/ml dexamethasone phosphate)
Procedure: (§2) For the cytokine release experiment, the RAW 264.7 cells were seeded in 24-well plates at a cellular density of 4×10^4 cells/well in culture medium and they were left in the incubator for 48 hours to reach 80% confluency. Then, the medium was replaced by fresh medium alone or fresh medium with LPS at 0.1 μg/mL, and the plates were incubated another 3 hours. Afterwards, the “standard” nanoparticles produced by emulsification-solvent evaporation at three concentrations: 1, 10 and 100 μg/mL of DXP and free dexamethasone phosphate at 82 μg/ml, which correspond to 100 μg/ml DXP considering molecular weight ratio, were added to some wells. Culture medium alone was used as negative control and LPS 0.1 μg/mL as positive control.
(§3) After 24 hours of incubation with the treatments, the supernatants were collected and frozen at −20° C. until the analysis was performed. The cells were detached and counted.
as §1

[2] = Pharmacokinetics in plasma after intravenous injection; parameters: species or system mice; settings: male, DBA/lOlaHsd, mouse, in vivo, 12 mg/kg
Procedure: Nanoparticles were prepared by emulsion-evaporation as described above and were diluted in PBS to obtain a final concentration of 2.5 mg/ml DXP, which corresponds to 1.55 mg/ml dexamethasone base. […] DXM. DBA/lOlaHsd male mice aged of 9 weeks (Envigo) were divided into two groups. One received the nanoparticle suspension and the other received the control, administration was carried out by intravenous injection in the tail vein at 12 mg/kg eq. DXM. For each group, 11 pharmacokinetic time points were performed with 7 mice per point, from 10 min to 48 hours. Blood sampling was achieved by terminal cardiac puncture using a 25G needle while mice were previously anesthetized with a lethal dose of pentobarbital. Immediately after, blood was centrifuged to recover plasma which was stored at −80° C. For every time point, 5 mice out of 7 underwent organs sampling after cardiac puncture. Liver, spleen, kidneys and lungs were removed and stored at −80° C.
To achieve quantification of DXM and DXP in plasma, an extraction process was developed. 100 μl of plasma samples were introduced into centrifugation tubes and 100 μl of the internal standart at 4 μg/ml in acetonitrile was added and vortexed during 30 seconds. 3 ml of a mixture chloroform/methanol: 9/1 (v/v) was added and tubes were vortexed vigorously 3 minutes. Centrifugation were performed at 3500 rpm, 30 min. Organic phase was recovered and evaporated using an evaporator under gas flow. Dried molecules were dissolved in 200 μl acetonitrile and this sample was analyzed by HPLC-UV. Calibration curves of DXP and DXM were linear, respectively in the range 0.5-100 μg/ml (R^2=0.9997, y=0.2199x−0.0165) and 0.1-100 μg/ml (R^2=0.9974, y=1.056x+0.1445). Regarding short time points (10 min, 20 min, 40 min), DXP and DXM concentrations were above the linearity range of the calibration curve. A second calibration curve for each molecule was set up, beginning with 50 μl plasma completed to 100 μl with milliQ water. Following stages were the same than previously described. Calibration curves “50 μl plasma” of DXP and DXM were linear, respectively in the range 50-800 μg/ml (R^2=0.9808, y=0.2229x−3.2128) and 20-400 μg/ml (R^2=0.9986, y=0.7178x−0.059). Internal standard was testosterone decanoate for DXP and dexamethasone acetate for DXM quantification.

IL-6 = assay: Cytokine release from LPS-treated macrophages: IL-6; format: cell-based, mouse; settings: RAW 264.7, LPS 0.1 μg/mL, 24 hours
Procedure: as §2, §3, §1

## C[C@@H]1C[C@H]2[C@@H]3CCC4=CC(=O)C=C[C@]4(C)[C@@]3(F)[C@@H](O)C[C@]2(C)[C@@]1(O)C(=O)COP(=O)(O)O [DSP, dexamethasone sodium phosphate]
[1]
  induction of pro-inflammatory cytokine release: neither DXP nanoparticles nor free drug induce pro-inflammatory cytokine release
TNFα
  TNFα release: no effect detected
[2]
  AUC0→t: 18755 µg·min/mL
  C0: 22.4 µg/mL
  Clearance: 0.0046 mL/min
  Cmax: 22.1 µg/mL
  MRT: 2700 min
  Tmax: 10 min
  Vd: 12.50 mL
  plateau of DXM in plasma: around 10 % of the injected dose
  t1/2: 1728 min
IL-6
  IL-6 release: No significant reduction
